The record followed here is PubChem BioAssay (NCI).

Test systems include OVCAR-5 ovarian; MDA-MB-231 breast; SK-MEL-28 melanoma; OVCAR-8 ovarian; NCI-H226 lung; OVCAR-3 ovarian; U251 CNS; MALME-3M melanoma; NCI-H522 lung; SNB-19 CNS.
Common to all, as to test: NCI anticancer screen, dose series, 48 h

Molecules are shown by their SMILES.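 Method: 48-hour compound exposure of cells in 96-well plates, five concentrations, linear interpolation of endpoints. Abbreviation: GI50, concentration required for 50% inhibition of growth. TGI is the concentration that stops growth completely.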

With `O=C(N/N=C/c1ccc(F)cc1)c1ccc(C(F)(F)F)nc1Nc1cccc(C(F)(F)F)c1`, the GI50 is 1.34 µM in the assay with OVCAR-5 ovarian; 1.23 µM in the assay with MDA-MB-231 breast; 1.79 µM in the assay with SK-MEL-28 melanoma; 1.7 µM in the assay on OVCAR-8 ovarian; 1.26 µM with NCI-H226 lung; 0.254 µM in the assay on OVCAR-3 ovarian. The GI50 is 0.598 µM in the assay with U251 CNS, 1.28 µM in the assay with MALME-3M melanoma, 1.61 µM in the assay with NCI-H522 lung and 1.51 µM in the assay on SNB-19 CNS. Besides, the TGI in the assay with OVCAR-5 ovarian was determined as 9.12 µM; in the assay on MDA-MB-231 breast it was 4.82 µM; in the assay with SK-MEL-28 melanoma, 7.92 µM; in the assay with OVCAR-8 ovarian, 6.62 µM; with NCI-H226 lung, 4.17 µM; with OVCAR-3 ovarian it was 0.713 µM. For the same compound, the TGI with U251 CNS was 2.98 µM; with MALME-3M melanoma, 4.68 µM; with NCI-H522 lung it was 4.54 µM; in the assay with SNB-19 CNS, 7.99 µM.
Regarding `NC(N)=N/N=C(/c1ccccc1)c1ccccc1F`, the GI50 with OVCAR-5 ovarian was 7.49 µM; in the assay on MDA-MB-231 breast it was 3.34 µM; in the assay on SK-MEL-28 melanoma, 4.69 µM; in the assay on OVCAR-8 ovarian, 4.03 µM; with NCI-H226 lung it was 5.35 µM; in the assay on OVCAR-3 ovarian, 2.1 µM. The GI50 with U251 CNS was 2.64 µM; in the assay on MALME-3M melanoma it was 8 µM; with NCI-H522 lung, 3.12 µM; in the assay on SNB-19 CNS, 4.19 µM. Also, the TGI turned out to be 33.8 µM with OVCAR-5 ovarian; 11.8 µM with MDA-MB-231 breast; 21.4 µM with SK-MEL-28 melanoma; 25.8 µM in the assay with OVCAR-8 ovarian; 22 µM with NCI-H226 lung; 7.55 µM with OVCAR-3 ovarian. In addition, the TGI in the assay on U251 CNS was 13.3 µM; with MALME-3M melanoma it was 25.6 µM; with NCI-H522 lung it was 14.7 µM; in the assay on SNB-19 CNS, 31.3 µM.
Take `CCCCC[C@@H](C/C=C/CCC(=O)NC/C(=C/Cl)[C@H]1C(=O)C(C)(C)C(=O)[C@@H](C)[C@@]1(C)O)OC`: the GI50 in the assay with OVCAR-5 ovarian was 18.9 µM; with MDA-MB-231 breast it was 16 µM; in the assay on SK-MEL-28 melanoma, 18.1 µM; in the assay on OVCAR-8 ovarian it was 18.6 µM; in the assay with NCI-H226 lung, 18 µM; in the assay with OVCAR-3 ovarian, 16.3 µM. The GI50 in the assay on U251 CNS was 20.1 µM; in the assay on MALME-3M melanoma it was 18.9 µM; with NCI-H522 lung, 13.9 µM; in the assay with SNB-19 CNS, 20.3 µM. Further, the TGI in the assay on OVCAR-5 ovarian is 34.7 µM; in the assay with MDA-MB-231 breast it was 32.3 µM; in the assay with SK-MEL-28 melanoma, 33.8 µM; in the assay with OVCAR-8 ovarian, 36.1 µM; with NCI-H226 lung, 36.1 µM; in the assay on OVCAR-3 ovarian, 30.5 µM. The TGI was 37.1 µM with U251 CNS, 35.5 µM in the assay with MALME-3M melanoma, 28 µM in the assay with NCI-H522 lung and 42 µM with SNB-19 CNS.
Regarding `CC1=C(CNO)C2=C(C)C3(CC3)[C@@](C)(O)C(=O)C2=C1`, the GI50 was 1.4 µM in the assay on OVCAR-5 ovarian; 2.03 µM in the assay with MDA-MB-231 breast; 2.37 µM in the assay on SK-MEL-28 melanoma; 2.28 µM with OVCAR-8 ovarian; 1.83 µM in the assay on NCI-H226 lung; 1.49 µM in the assay on OVCAR-3 ovarian. The GI50 with U251 CNS was 2.39 µM; with MALME-3M melanoma, 1.81 µM; in the assay with NCI-H522 lung it was 0.679 µM; with SNB-19 CNS, 1.81 µM. In addition, the TGI turned out to be 17.4 µM in the assay on OVCAR-5 ovarian; 7.14 µM with MDA-MB-231 breast; 6.05 µM with SK-MEL-28 melanoma; 36 µM in the assay with OVCAR-8 ovarian; 4.79 µM in the assay with NCI-H226 lung; 6.26 µM in the assay with OVCAR-3 ovarian. Moreover, the TGI is greater than 100 µM in the assay on U251 CNS, 3.71 µM in the assay on MALME-3M melanoma, 5.25 µM in the assay on NCI-H522 lung and 25.5 µM in the assay on SNB-19 CNS.
In the case of `CC1(C)CC[C@]2(C(=O)O)CC[C@]3(C)C(=CC[C@@H]4[C@@]5(C)C/C(=C/c6ccco6)C(=O)C(C)(C)[C@@H]5CC[C@]43C)[C@@H]2C1`, the GI50 was 6.15 µM in the assay on OVCAR-5 ovarian; 3.49 µM with MDA-MB-231 breast; 4.35 µM with SK-MEL-28 melanoma; 4.29 µM with OVCAR-8 ovarian; 3.42 µM with NCI-H226 lung; 2.9 µM in the assay on OVCAR-3 ovarian. Further, the GI50 with U251 CNS is 3.45 µM; in the assay with MALME-3M melanoma, 3.99 µM; with NCI-H522 lung, 3.22 µM; in the assay with SNB-19 CNS, 4.02 µM. Also, the TGI in the assay on OVCAR-5 ovarian was 32.5 µM; in the assay on MDA-MB-231 breast it was 19.5 µM; in the assay with SK-MEL-28 melanoma, 17.4 µM; in the assay with OVCAR-8 ovarian, greater than 100 µM; in the assay on NCI-H226 lung, 19.5 µM; with OVCAR-3 ovarian it was 9.61 µM. The TGI in the assay with U251 CNS was 15 µM; in the assay on MALME-3M melanoma, 16.6 µM; with NCI-H522 lung, 24.3 µM; in the assay on SNB-19 CNS it was greater than 100 µM.
Regarding `CC1=C2[C@@H](CC1)[C@]1(C)O[C@@](C3CC3)(C[C@H]1OC(=O)CO)[C@H]2OC(=O)/C=C/c1ccccc1`, the GI50 in the assay with OVCAR-5 ovarian is 17.5 µM; in the assay with MDA-MB-231 breast, 18.3 µM; in the assay with SK-MEL-28 melanoma, 18.6 µM; with OVCAR-8 ovarian, 0.0834 µM; in the assay with NCI-H226 lung, 16.2 µM; in the assay on OVCAR-3 ovarian it was 15.3 µM. Moreover, the GI50 in the assay on U251 CNS was 15.6 µM; with MALME-3M melanoma, 15.6 µM; with NCI-H522 lung, 15.9 µM; with SNB-19 CNS it was 17.6 µM. Besides, the TGI with OVCAR-5 ovarian came to 36.5 µM; with MDA-MB-231 breast, 37.6 µM; with SK-MEL-28 melanoma it was 36.3 µM; with OVCAR-8 ovarian it was 15.4 µM; in the assay with NCI-H226 lung, 36.5 µM; with OVCAR-3 ovarian it was 29.2 µM. Further, the TGI is 29.3 µM in the assay with U251 CNS, 32.8 µM in the assay on MALME-3M melanoma, 32.4 µM in the assay on NCI-H522 lung and 35.6 µM with SNB-19 CNS.
With `COc1cc(/C=C2\C(=O)N(C)c3ccccc32)cc(OC)c1OC`, the GI50 was 25.2 µM in the assay with OVCAR-5 ovarian; 14.2 µM in the assay on MDA-MB-231 breast; 16 µM in the assay on SK-MEL-28 melanoma; 22.7 µM with OVCAR-8 ovarian; 19.1 µM in the assay with NCI-H226 lung; 21.3 µM with OVCAR-3 ovarian. In addition, the GI50 in the assay with U251 CNS was 7.49 µM; with MALME-3M melanoma it was 82.7 µM; with NCI-H522 lung, 11.2 µM; in the assay with SNB-19 CNS, 24.7 µM. The TGI in the assay on OVCAR-5 ovarian came to 70.2 µM; in the assay on MDA-MB-231 breast it was 68.4 µM; with SK-MEL-28 melanoma it was 44.4 µM; with OVCAR-8 ovarian, 95.2 µM; in the assay on NCI-H226 lung, 52.4 µM; in the assay on OVCAR-3 ovarian it was 76.9 µM. The TGI was 41.7 µM with U251 CNS, greater than 100 µM with MALME-3M melanoma, 37.8 µM in the assay with NCI-H522 lung and greater than 100 µM in the assay with SNB-19 CNS.
